Results reported in ChEMBL document CHEMBL1201862, “PubChem BioAssay data set” (2004).
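Following 48 hours of exposure in 96-well plates, responses at five concentrations were used to interpolate endpoints linearly. GI50 marks 50% less growth.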 Active and inactive are the calls of the source. No stated cut-off is given here; in the data, active = GI50 up to about 1.1 µM and inactive = higher.

What was measured:
Assay in all cases: DTP human tumour cell line panel, 48 h
ACHN = test system: ACHN
K562 = test system: K562
SK-OV-3 = test system: SK-OV-3
LOX IMVI = test system: LOX IMVI
SN12C = test system: SN12C
SNB-19 = test system: SNB-19
KM12 = test system: KM12
HCC 2998 = test system: HCC 2998
NCI-H226 = test system: NCI-H226
SK-MEL-2 = test system: SK-MEL-2
UO-31 = test system: UO-31
NCI-H522 = test system: NCI-H522
HOP-62 = test system: HOP-62
SF-295 = test system: SF-295
Malme-3M = test system: Malme-3M
RXF 393 = test system: RXF 393
MDA-N = test system: MDA-N

Measured: GI50

COC(=O)C1CC(C(=O)OC)c2nc3cc(C)c(C)cc3nc21 (stereo not given)
inactive: ACHN > 100 µM | K562 > 100 µM | SK-OV-3 > 100 µM | LOX IMVI > 100 µM | SN12C > 100 µM | SNB-19 > 100 µM | KM12 > 100 µM | HCC 2998 > 100 µM | NCI-H226 > 100 µM | SK-MEL-2 > 100 µM | UO-31 > 100 µM | NCI-H522 > 100 µM | HOP-62 > 100 µM | SF-295 > 100 µM | Malme-3M > 100 µM

CCOc1ccccc1/N=N/c1ccc2oc(=O)c(C(C)=O)cc2c1
inactive: K562 > 100 µM | SK-OV-3 > 100 µM | LOX IMVI > 100 µM | SN12C > 100 µM | SNB-19 55.5 µM | KM12 > 100 µM | HCC 2998 > 100 µM | SK-MEL-2 71 µM | UO-31 > 100 µM | NCI-H522 58.9 µM | HOP-62 > 100 µM | SF-295 41.4 µM | Malme-3M > 100 µM

O=C1CCC2(c3ccccc3)OCC([C@@H](O)c3ccccc3)N12 (stereo not given in full)
inactive: ACHN > 100 µM | K562 > 100 µM | LOX IMVI > 100 µM | SN12C > 100 µM | SNB-19 > 100 µM | RXF 393 > 100 µM | KM12 > 100 µM | SK-MEL-2 > 100 µM | HOP-62 > 100 µM | SF-295 > 100 µM | Malme-3M > 100 µM

C[N+](C)(C)CC1CCCC/C1=N\O (stereo not given)
inactive: ACHN > 100 µM | K562 > 100 µM | SK-OV-3 > 100 µM | LOX IMVI > 100 µM | SN12C > 100 µM | SNB-19 > 100 µM | RXF 393 > 100 µM | KM12 > 100 µM | HCC 2998 > 100 µM | SK-MEL-2 > 100 µM | UO-31 > 100 µM | NCI-H522 > 100 µM | HOP-62 > 100 µM | SF-295 > 100 µM | Malme-3M > 100 µM

CC(C)C1CNC2N1C(=O)C2(C)OCc1ccccc1 (stereo not given)
inactive: ACHN > 100 µM | K562 > 100 µM | LOX IMVI > 100 µM | SN12C > 100 µM | SNB-19 > 100 µM | RXF 393 > 100 µM | HCC 2998 > 100 µM | NCI-H226 40.6 µM | SK-MEL-2 > 100 µM | UO-31 81.5 µM | HOP-62 > 100 µM | SF-295 > 100 µM | Malme-3M > 100 µM

O=C(O)C1OC(Oc2cc(O)c3c(=O)cc(-c4ccc(O)cc4)oc3c2)C(O)C(O)C1O (stereo not given)
inactive: ACHN > 100 µM | LOX IMVI > 100 µM | SN12C > 100 µM | SNB-19 > 100 µM | KM12 > 100 µM | HCC 2998 > 100 µM | NCI-H226 > 100 µM | SK-MEL-2 > 100 µM | UO-31 > 100 µM | NCI-H522 > 100 µM | HOP-62 > 100 µM | SF-295 > 100 µM | Malme-3M > 100 µM

COc1cc(NCC(C#N)C#N)ccc1/N=N/c1ccc(Cl)cc1
inactive: ACHN 31.8 µM | K562 22.1 µM | SK-OV-3 29.9 µM | LOX IMVI 18.2 µM | SN12C 38.8 µM | SNB-19 13.1 µM | RXF 393 43.6 µM | KM12 14.2 µM | HCC 2998 19.7 µM | NCI-H226 30.5 µM | SK-MEL-2 21.7 µM | UO-31 16.9 µM | NCI-H522 16.6 µM | HOP-62 19.9 µM | SF-295 22.3 µM | Malme-3M 35.2 µM

COC(=O)C1=CCON(c2ccccc2)C1c1ccccc1 (stereo not given)
inactive: ACHN 57 µM | K562 40.4 µM | SK-OV-3 53 µM | LOX IMVI 47.1 µM | SN12C > 10 µM | SNB-19 62.8 µM | RXF 393 48 µM | KM12 45 µM | HCC 2998 65.5 µM | NCI-H226 93.8 µM | SK-MEL-2 65.8 µM | UO-31 36.1 µM | NCI-H522 20.7 µM | HOP-62 > 100 µM | Malme-3M 48.1 µM

O=c1cc(-c2ccccc2)[nH]c2cc(Cl)cc(Cl)c12
inactive: ACHN 43.9 µM | K562 7.31 µM | SK-OV-3 23.6 µM | LOX IMVI 70 µM | SN12C 69 µM | RXF 393 15.2 µM | KM12 5.04 µM | NCI-H226 37.8 µM | SK-MEL-2 46.1 µM | UO-31 84.7 µM | NCI-H522 12.1 µM | HOP-62 25.8 µM | SF-295 27 µM | Malme-3M 20.6 µM

O=C1C2=C(c3ccccc31)C(c1ccccc1)NC(S)=N2 (stereo not given)
inactive: ACHN > 100 µM | K562 22.3 µM | SK-OV-3 > 100 µM | SN12C > 100 µM | SNB-19 38 µM | KM12 41.9 µM | HCC 2998 > 100 µM | NCI-H226 > 100 µM | SK-MEL-2 84.1 µM | UO-31 > 100 µM | NCI-H522 33.7 µM | HOP-62 > 100 µM | SF-295 31.9 µM | Malme-3M > 100 µM

COc1cc(O)c2c(c1O)C(=O)c1cc(C)ncc1C2=O
inactive: ACHN 24.3 µM | K562 20 µM | SK-OV-3 9.89 µM | LOX IMVI 13.9 µM | SN12C 17.9 µM | SNB-19 21.6 µM | RXF 393 18.5 µM | KM12 17.9 µM | HCC 2998 22.5 µM | NCI-H226 45 µM | SK-MEL-2 22.3 µM | UO-31 14.3 µM | NCI-H522 27 µM | HOP-62 28.8 µM | SF-295 19 µM | Malme-3M 9.71 µM

N#CNc1nc(C(=O)Nc2ccc(Cl)cc2)cc(-c2ccccc2)n1
inactive: ACHN > 100 µM | K562 > 100 µM | SN12C > 100 µM | SNB-19 > 100 µM | RXF 393 > 100 µM | KM12 > 100 µM | HCC 2998 > 100 µM | NCI-H226 > 100 µM | SK-MEL-2 > 100 µM | UO-31 > 100 µM | HOP-62 > 100 µM | SF-295 > 100 µM | Malme-3M > 100 µM

Cc1cc(Cl)ccc1NC1=NC(=O)C(CC(=O)Nc2ccc(Cl)cc2Cl)S1 (stereo not given)
inactive: ACHN > 100 µM | K562 > 100 µM | SK-OV-3 > 100 µM | LOX IMVI > 100 µM | SN12C > 100 µM | SNB-19 > 100 µM | KM12 > 100 µM | HCC 2998 > 100 µM | SK-MEL-2 > 100 µM | UO-31 > 100 µM | HOP-62 > 100 µM | SF-295 > 100 µM | Malme-3M > 100 µM

O=C(c1ccc2ccccc2c1)C1S(=O)(=O)OCCOS1(=O)=O
inactive: ACHN > 100 µM | K562 > 100 µM | LOX IMVI > 100 µM | SN12C > 100 µM | SNB-19 > 100 µM | KM12 > 100 µM | HCC 2998 > 100 µM | MDA-N > 100 µM | SK-MEL-2 > 100 µM | UO-31 > 100 µM | HOP-62 > 100 µM | SF-295 > 100 µM | Malme-3M > 100 µM

C/C=C/C=C/C=C/C=C/C(=O)O
inactive: ACHN > 100 µM | K562 > 100 µM | SK-OV-3 > 100 µM | LOX IMVI > 100 µM | SN12C > 100 µM | SNB-19 > 100 µM | RXF 393 > 100 µM | KM12 > 100 µM | HCC 2998 > 100 µM | NCI-H226 > 100 µM | SK-MEL-2 > 100 µM | UO-31 > 100 µM | NCI-H522 > 100 µM | HOP-62 > 100 µM | SF-295 > 100 µM | Malme-3M > 100 µM

CC1CC(=O)C(CC(=O)O)[C@H]1C(C(=O)C(=O)Nc1cc(Cl)ccc1Cl)[N+](=O)[O-] (stereo not given in full)
inactive: ACHN > 100 µM | K562 > 100 µM | SK-OV-3 > 100 µM | LOX IMVI > 100 µM | SN12C > 100 µM | SNB-19 > 100 µM | RXF 393 > 100 µM | KM12 > 100 µM | HCC 2998 > 100 µM | NCI-H226 > 100 µM | UO-31 > 100 µM | NCI-H522 > 100 µM | HOP-62 > 100 µM | SF-295 > 100 µM

COc1cc2nc(-c3cccc(N(C)C)c3)cc(O)c2cc1OC
inactive: ACHN 14.5 µM | K562 3.62 µM | SK-OV-3 3.7 µM | LOX IMVI 6.79 µM | SN12C 7.67 µM | SNB-19 4.98 µM | RXF 393 2.21 µM | KM12 3.31 µM | HCC 2998 2.39 µM | NCI-H226 3.58 µM | UO-31 5.65 µM | NCI-H522 2.81 µM | HOP-62 3.02 µM | SF-295 2.58 µM | Malme-3M 2.23 µM

Nc1ccc2c(c1)C(=O)N(OS(=O)(=O)c1ccccc1)C2=O
inactive: ACHN > 100 µM | K562 86.1 µM | SK-OV-3 > 100 µM | LOX IMVI 35.5 µM | SN12C > 100 µM | SNB-19 > 100 µM | RXF 393 > 100 µM | KM12 > 100 µM | HCC 2998 > 100 µM | NCI-H226 > 100 µM | SK-MEL-2 > 100 µM | UO-31 > 100 µM | NCI-H522 21.5 µM | HOP-62 > 100 µM | SF-295 > 100 µM | Malme-3M 94.4 µM

Nc1ccc(O)c2c1C(=O)c1c(N)ccc(O)c1C2=O
inactive: ACHN > 100 µM | K562 > 100 µM | SK-OV-3 > 100 µM | LOX IMVI > 100 µM | SN12C > 100 µM | SNB-19 > 100 µM | RXF 393 > 100 µM | KM12 > 100 µM | HCC 2998 > 100 µM | SK-MEL-2 > 100 µM | UO-31 > 100 µM | NCI-H522 > 100 µM | HOP-62 > 100 µM | SF-295 > 100 µM | Malme-3M > 100 µM
